Measurements reported in patent US20220105189A1, “POLYETHYLENE GLYCOL CONJUGATED DRUG AND ITS PREPARATION METHOD AND USE” (CHONGQING UPGRA BIOTECHNOLOGY CO., LTD., priority 2019, published 2022).

Test system: human colon cancer cell colo205
Assay: Anti-tumor efficacy on subcutaneously transplanted tumor of colo205 (Experimental Example 2)
Assay type: in vivo, Balb/c nude mice
Settings: colo205, Day 19; 23-161 16.06 mg/kg tail vein; PCB 1.73 mg/kg oral
Experimental: 1. Tumor strain and transplantation method of solid tumor: Human colon cancer cell colo205 was routinely preserved in the cell room of the State Key Laboratory of Molecular Oncology, Institute of Cancer Research, Chinese Academy of Medical Sciences. The tumor cells were taken out of liquid nitrogen, quickly thawed at 37° C., resuscitated and expanded, and then inoculated subcutaneously in the right axillary of healthy Balb/c mice. When the transplanted tumor grew to about 1.0 cm in diameter, the mice were sacrificed. Under aseptic conditions, the tumors were peeled off for passage by conventional methods.
2. Tumor inoculation and grouping: the tumor-bearing mice were sacrificed, the tumors were peeled off under aseptic condition and washed with normal saline several times, the necrotic tissues were removed, the well-growing tumor tissues were selected and divided into 2×2 mm tissue blocks, and the tumor tissue blocks were inoculated subcutaneously in the right axillary with a special metal trocar. After the transplantation of the tumor tissue blocks, administration in groups was carried out on the day of the transplantation.
3. […]
4. Data collection: the mice were weighed, the volume of tumors was measured, the mice were scarified on Day 19, the tumors were weighed, and the tumor inhibition rate (%) was calculated. […]

## CC(=O)c1c(C)c2cnc(Nc3ccc(N4CCNCC4)cn3)nc2n(C2CCCC2)c1=O [PCB, Palbociclib]
  Tumor inhibition rate: −5.8%
  Tumor weight (g) Average: 0.39 g
